In BigSolDB 2.1:

Nc1ccc(N2CCOCC2=O)cc1
solubility (mole fraction)
Details	in 1,4-dioxane	in THF	in ethanol	in ethyl acetate	in methanol	in n-propanol
278.15 K	0.00411	0.00138	0.00127	0.000559	0.00172	0.000322
283.15 K	0.00529	0.00182	0.00162	0.000794	0.00221	0.000404
288.15 K	0.00665	0.00245	0.00208	0.0011	0.00285	0.000506
293.15 K	0.0083	0.00323	0.0026	0.00149	0.00367	0.000649
298.15 K	0.0102	0.00423	0.00321	0.00196	0.00463	0.000825
303.15 K	0.0125	0.00542	0.00393	0.00257	0.00589	0.00105
308.15 K	0.0149	0.00687	0.00475	0.00326	0.00751	0.00133
313.15 K	0.0178	0.00865	0.00567	0.00412	0.00955	0.0017
318.15 K	0.0209	0.0107	0.00672	0.00509	0.0121	0.00216
323.15 K	0.0244	0.0132	0.00792	0.0062	0.0153	0.00274
328.15 K	0.0282	0.0159	0.00928	0.00743	0.019	0.00348
333.15 K	0.032	0.0191	0.0107	0.00873	0.0239	0.00443
